Data as given in article PMC9024363, “Study on the Biochemical Characterization and Selectivity of Three β-Glucosidases From Bifidobacterium adolescentis ATCC15703” (Frontiers in Microbiology, 2022).
Values belong to the compound of their own block, whether it stands above or below them.

Assays:
Assay type in all cases: biochemical
[1] = biological target: T1, BaBgl3A (Bifidobacterium adolescentis, UniProt A1A2P2); test: TLC and HPLC of products; conditions: optimum pH, 37 °C, 2 h; 5 mg/ml substrate
T1 construct: gene BAD_1194; GH3; N-terminus from primer MSENTY
T1 sequence (A1A2P2 1-751): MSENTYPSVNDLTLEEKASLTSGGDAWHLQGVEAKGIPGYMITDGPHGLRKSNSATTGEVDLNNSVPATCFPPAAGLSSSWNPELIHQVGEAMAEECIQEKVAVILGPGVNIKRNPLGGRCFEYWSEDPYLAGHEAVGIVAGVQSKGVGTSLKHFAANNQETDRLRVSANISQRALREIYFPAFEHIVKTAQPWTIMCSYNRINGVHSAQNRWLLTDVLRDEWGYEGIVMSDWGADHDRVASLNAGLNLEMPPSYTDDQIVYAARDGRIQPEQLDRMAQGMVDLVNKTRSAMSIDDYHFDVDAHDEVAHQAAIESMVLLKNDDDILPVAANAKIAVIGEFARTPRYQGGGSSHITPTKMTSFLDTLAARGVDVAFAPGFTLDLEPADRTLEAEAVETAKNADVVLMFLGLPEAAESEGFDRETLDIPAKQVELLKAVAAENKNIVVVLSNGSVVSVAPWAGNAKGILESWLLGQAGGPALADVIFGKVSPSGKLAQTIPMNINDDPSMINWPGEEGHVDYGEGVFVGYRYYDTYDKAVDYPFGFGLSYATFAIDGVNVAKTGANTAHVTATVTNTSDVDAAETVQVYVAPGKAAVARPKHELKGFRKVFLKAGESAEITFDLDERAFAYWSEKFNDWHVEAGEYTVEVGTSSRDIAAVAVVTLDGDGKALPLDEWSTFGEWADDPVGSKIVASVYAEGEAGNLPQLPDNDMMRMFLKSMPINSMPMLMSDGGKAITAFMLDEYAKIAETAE

[2] = biological target: T2, BaBgl3B (Bifidobacterium adolescentis, UniProt A1A2P5); test: pNPβGlc hydrolysis, absorbance […] nm
T2 construct: gene bglX; GH3; N-terminus from primer MSSCGC
T2 sequence (A1A2P5 1-809): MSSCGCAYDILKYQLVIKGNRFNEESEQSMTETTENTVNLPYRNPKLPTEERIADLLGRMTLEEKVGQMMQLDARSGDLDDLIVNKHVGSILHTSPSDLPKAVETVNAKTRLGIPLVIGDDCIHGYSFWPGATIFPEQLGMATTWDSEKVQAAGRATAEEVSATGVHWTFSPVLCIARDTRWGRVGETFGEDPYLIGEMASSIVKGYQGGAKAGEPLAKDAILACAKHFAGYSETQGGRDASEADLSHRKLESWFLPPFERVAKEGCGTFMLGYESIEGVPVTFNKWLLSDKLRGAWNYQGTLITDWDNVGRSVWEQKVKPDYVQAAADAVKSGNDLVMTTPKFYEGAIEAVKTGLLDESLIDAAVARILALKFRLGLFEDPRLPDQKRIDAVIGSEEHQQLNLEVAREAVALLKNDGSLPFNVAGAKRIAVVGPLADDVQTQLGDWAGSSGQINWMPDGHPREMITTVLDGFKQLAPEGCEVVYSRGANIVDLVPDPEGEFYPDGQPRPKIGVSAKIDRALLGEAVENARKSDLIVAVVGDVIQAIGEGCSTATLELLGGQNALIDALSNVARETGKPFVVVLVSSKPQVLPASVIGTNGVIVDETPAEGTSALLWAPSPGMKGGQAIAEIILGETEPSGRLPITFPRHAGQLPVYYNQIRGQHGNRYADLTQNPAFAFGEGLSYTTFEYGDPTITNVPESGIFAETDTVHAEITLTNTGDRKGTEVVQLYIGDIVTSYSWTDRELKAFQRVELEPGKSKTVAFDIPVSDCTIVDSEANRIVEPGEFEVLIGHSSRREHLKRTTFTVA

[3] = biological target: T3, BaBgl1A (Bifidobacterium adolescentis, UniProt A1A2Y5); test: pNPβGlc hydrolysis, absorbance […] nm
T3 construct: gene BAD_1287; GH1; N-terminus from primer MKEQYE
T3 sequence (A1A2Y5 1-391): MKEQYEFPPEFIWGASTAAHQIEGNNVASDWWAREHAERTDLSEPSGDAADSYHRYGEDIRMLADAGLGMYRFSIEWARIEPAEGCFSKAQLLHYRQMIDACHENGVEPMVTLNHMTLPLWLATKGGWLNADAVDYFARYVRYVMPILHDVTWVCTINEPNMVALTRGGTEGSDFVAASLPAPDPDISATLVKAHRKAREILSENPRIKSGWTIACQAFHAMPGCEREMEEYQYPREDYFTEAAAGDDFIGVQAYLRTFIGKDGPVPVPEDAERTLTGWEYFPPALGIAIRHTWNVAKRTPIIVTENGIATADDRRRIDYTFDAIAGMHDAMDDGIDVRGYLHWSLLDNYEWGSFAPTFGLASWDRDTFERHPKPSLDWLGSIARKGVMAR

[4] = biological target: T3, BaBgl1A; test: pNPβGlc hydrolysis, absorbance […] nm; conditions: competitive; pNPβGlc substrate; optimum pH 6.0, 30 °C
[5] = biological target: T2, BaBgl3B; test: pNPβGlc hydrolysis, absorbance […] nm; conditions: competitive; pNPβGlc substrate; optimum pH 6.5, 50 °C

Structure (SMILES): CC(C)=CCC[C@](C)(O[C@@H]1O[C@H](CO[C@@H]2O[C@H](CO)[C@@H](O)[C@H](O)[C@H]2O)[C@@H](O)[C@H](O)[C@H]1O)[C@H]1CC[C@]2(C)[C@@H]1[C@H](O)C[C@@H]1[C@@]3(C)CC[C@H](O[C@@H]4O[C@H](CO)[C@@H](O)[C@H](O)[C@H]4O[C@@H]4O[C@H](CO)[C@@H](O)[C@H](O)[C@H]4O)C(C)(C)[C@@H]3CC[C@]12C [Rb1]
TLC and HPLC of products [1]: Rb1 could be converted into Rd and Gyp XVII by BaBgl3A

inhibition at 1 M [2]: > 70% | inhibition at 1 M [3]: > 70%
Structure (SMILES): OC[C@H]1OC(O)[C@@H](O)[C@@H](O)[C@@H]1O (some centres unmarked) [mannose]

Structure (SMILES): OCC1(O)OC[C@@H](O)[C@@H](O)[C@@H]1O (some centres unmarked) [fructose]
% inhibition [4]: mannose and fructose acted as competitive inhibitors for BaBgl1A and BaBgl3B | % inhibition [5]: mannose and fructose acted as competitive inhibitors for BaBgl1A and BaBgl3B
